Here are results for four molecules from ChEMBL document CHEMBL1201862, “PubChem BioAssay data set” (2004).

Test systems include BT-549; CAKI-1; CCRF-CEM; EKVX; HCC 2998; HCT-116; IGROV-1; M14; Malme-3M; NCI-H522; OVCAR-3; PC-3; SF-295; SF-539; SK-MEL-5; SK-OV-3; SNB-19; SW-620; UACC-257; UO-31.
Common to all, as to assay: NCI tumour cell line growth inhibition, 48 h

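Interpolation was linear, between the two tested concentrations surrounding the appropriate level; five concentrations were tested over 48 hours in 96-well plates. GI50 marks 50% less growth.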 Activity calls are given as the source filed them. No stated cut-off is given here; in the data, active = GI50 up to about 1.1 µM and inactive = higher.

`CN(C)Cc1cc(/N=N/c2c(Cl)cccc2Cl)ccc1O`: the GI50 was 49 µM (inactive) in the experiment with BT-549; > 100 µM (inactive) in the experiment on CAKI-1; > 100 µM (inactive) in the experiment on CCRF-CEM; > 100 µM (inactive) in the experiment on EKVX; > 100 µM (inactive) with HCC 2998; > 100 µM (inactive) with HCT-116. Also, the GI50 in the experiment on IGROV-1 was 61.4 µM (inactive); in the experiment on M14 it was > 10 µM (inactive); in the experiment on Malme-3M, 74.5 µM (inactive); with NCI-H522 it was > 100 µM (inactive); with OVCAR-3, 57.4 µM (inactive); in the experiment with PC-3, > 100 µM (inactive). The GI50 is > 100 µM (inactive) in the experiment on SF-295; > 100 µM (inactive) in the experiment on SF-539; 17.5 µM (inactive) in the experiment with SK-MEL-5; > 100 µM (inactive) in the experiment on SK-OV-3; > 100 µM (inactive) in the experiment with SNB-19; 79.6 µM (inactive) with SW-620. For the same molecule, the values for the GI50 in the experiment with UACC-257 and in the experiment with UO-31 were 79.6 µM (inactive) and 36 µM (inactive), respectively.

Turning to `Cn1c(=O)c2c(nc3sc4c(n32)C(=O)c2c(O)ccc(O)c2C4=O)n(C)c1=O`, the GI50 is 5.9 µM (inactive) with BT-549; 6.04 µM (inactive) in the experiment on CAKI-1; 0.305 µM (active) with CCRF-CEM; 13 µM (inactive) in the experiment with EKVX; 4.11 µM (inactive) in the experiment on HCC 2998; 1.87 µM (inactive) with HCT-116. The GI50 in the experiment on IGROV-1 was 8.02 µM (inactive); in the experiment on M14, 2.51 µM (inactive); with Malme-3M, 1.06 µM (active); in the experiment on NCI-H522, 0.137 µM (active); in the experiment on OVCAR-3, 4.67 µM (inactive); in the experiment on PC-3 it was 5.4 µM (inactive). The GI50 is 31.2 µM (inactive) in the experiment with SF-295; 3.44 µM (inactive) with SF-539; 2.46 µM (inactive) in the experiment on SK-MEL-5; 40.7 µM (inactive) with SK-OV-3; > 53.1 µM (inactive) in the experiment with SNB-19; 0.406 µM (active) in the experiment with SW-620. Also, the GI50 with UACC-257 is 11.2 µM (inactive); with UO-31, 3.74 µM (inactive).

With `O=c1[nH]c(Nc2ccc(Br)c(C(F)(F)F)c2)nc2[nH]cnc12`, the GI50 in the experiment on BT-549 is 62.7 µM (inactive); with CAKI-1, 50 µM (inactive); in the experiment with CCRF-CEM, 43.8 µM (inactive); in the experiment with EKVX it was 80.2 µM (inactive); in the experiment on HCC 2998, 17.9 µM (inactive); in the experiment with HCT-116 it was 48.4 µM (inactive). Besides, the GI50 with IGROV-1 was 40.4 µM (inactive); in the experiment with M14, 30.5 µM (inactive); in the experiment on Malme-3M, 38.8 µM (inactive); with NCI-H522, 18.5 µM (inactive); with OVCAR-3 it was 31.8 µM (inactive); in the experiment with PC-3, 37.7 µM (inactive). The GI50 in the experiment with SF-295 was 54.1 µM (inactive); in the experiment with SF-539, 34.5 µM (inactive); in the experiment on SK-MEL-5, 29.9 µM (inactive); in the experiment on SK-OV-3 it was 45.1 µM (inactive); with SNB-19, 39.6 µM (inactive); in the experiment with SW-620, 57.9 µM (inactive). Moreover, the GI50 in the experiment on UACC-257 is 82 µM (inactive); in the experiment on UO-31, 43.9 µM (inactive).

For the molecule `CCC1(N)C(=O)OCc2c1cc1n(c2=O)Cc2cc3ccccc3nc2-1` (stereo not given), the GI50 in the experiment with BT-549 was 30.5 µM (inactive); in the experiment on CAKI-1, 2.84 µM (inactive); in the experiment with CCRF-CEM, 0.859 µM (active); in the experiment with EKVX, 51.4 µM (inactive); with HCC 2998, 38.4 µM (inactive); in the experiment on HCT-116, 4.67 µM (inactive). Moreover, the GI50 is 6.56 µM (inactive) with IGROV-1; 7.41 µM (inactive) in the experiment on M14; 44.3 µM (inactive) in the experiment on Malme-3M; 9.51 µM (inactive) in the experiment on NCI-H522; > 55.7 µM (inactive) in the experiment with OVCAR-3; 15.2 µM (inactive) with PC-3. Also, the GI50 with SF-295 is 5.31 µM (inactive); in the experiment with SF-539 it was 4.04 µM (inactive); in the experiment on SK-MEL-5, 5.21 µM (inactive); with SK-OV-3, > 100 µM (inactive); with SNB-19 it was 7.67 µM (inactive); in the experiment with SW-620 it was 25.7 µM (inactive). Besides, the GI50 was 36.6 µM (inactive) in the experiment with UACC-257 and 3.42 µM (inactive) in the experiment on UO-31.
